Results on two compounds are retold here after US8597686B2, “Porous cellulose aggregate and formed product composition comprising the same” (Asahi Kasei Chemicals Corporation, priority 2004, dated 2013).

SMILES strings stand for the structures.

Series [1] in a line: Elution test of ethenzamide. The class given is physicochemical. The settings on record: molded product at 50 MPa or pulverized bulk drug. The protocol:
0.2 g of the obtained mixed powder was weighed and put in a mortar (manufactured by Kikusui Seisakusho, Ltd. using materials SUS2, 3) and compressed with a round plane mallet (manufactured by Kikusui Seisakusho, Ltd. using materials SUS2, […], trade name, PCM-1A, compression rate 1 cm/min) and after held at the aimed pressure for 10 seconds, a columnar molded product was taken out. […]
1 g of Cellulose Aggregate G was added to 10 mL of a solution in which ethenzamide (manufactured by API Co., Ltd., a powder grade was pulverized with a small size pulverizer) was dissolved in ethanol (manufactured by Wako Pure Chemical Industries, Ltd., special grade chemical) in a ratio of 5:95 and stirred by a magnetic stirrer for three minutes. The obtained dispersion was introduced into an evaporator and completely deprived of solvent to obtain a powder sample.
Similarly operating as in Example 14 except that the pressure at the time of preparing a columnar molded product from this powder was changed to 50 MPa and elution test was performed.
Only the ethenzamide pulverized by the method of Example 15 was subjected to elution test.

Series [2] in a line: Reactivity with pharmacological agent (aspirin decomposition ratio on storage). The class given is physicochemical. The following applies: 60° C., airtight, two weeks.
Method: Aspirin (official crystal aspirin one pass treated with a small pulverizer φ 0.5 mm) and each cellulose sample were blended by powder-powder in 5/5 (total amount: 0.5 g) in dry process and mixed in glass sample bottle and stored with airtight stopper (60° C.) in an oven (manufactured by Tabai Espec, trade name, perfect oven) for two weeks and decomposition ratio was measured. […] 0.25 g of aspirin after stored (0.5 g for powder blend product) was introduced into a 50 mL measuring flask and added with ethanol to total 50 mL and shaken for five minutes. The resulted ethanol solution was filtered and the filtrate was transferred to a 100 mL measuring flask and added with ethanol to total 100 mL. 1 mL of this ethanol solution and 1 mL of the above color identification test liquid were introduced into a 50 mL measuring flask and added with pure water to total 50 mL and absorbance at wavelength 532 nm was measured with an ultraviolet absorbance measuring instrument (manufactured by JASCO Corp.). The decomposition ratio was calculated as follows: Decomposition ratio=(1−(absorbance after stored/absorbance before stored))×100(%).

Consider `CCOc1ccccc1C(N)=O` [Bulk Ethenzamide, ethenzamide], for which the “Dissolution Rate after 1 hour” value in series [1] amounted to 9%.

Turning to `CC(=O)Oc1ccccc1C(=O)O` [aspirin, Aspirin], the aspirin decomposition ratio in series [2] was determined as 15%.
